The numbers were not newly measured in patent publication US20240130871A1, “DRUG-COATED ENDOVASCULAR DEVICES” (UNIVERSITY OF SOUTH CAROLINA, priority 2022, published 2024), which cites them from elsewhere.

A value given as a limit tells only on which side of the number the result lay.

For the data set the following is noted: current DCB devices.

Turning to `CC(=O)O[C@H]1C(=O)[C@@]2(C)[C@H]([C@H](OC(=O)c3ccccc3)[C@]3(O)C[C@H](OC(=O)[C@H](O)[C@@H](NC(=O)c4ccccc4)c4ccccc4)C(C)=C1C3(C)C)[C@]1(OC(C)=O)CO[C@@H]1C[C@@H]2O` [PTX, paclitaxel], the “delivered PTX lost to systemic circulation” value is over 90%.
